Source: patent US10028992B2, “Methods of treating muscular dystrophy” (BOARD OF REGENTS OF THE NEVADA SYSTEM OF HIGHER EDUCATION …, priority 2012, dated 2018)
Where two headings read alike, the source gives them in different places.

System: α7 integrin promoter
Experiment: muscle cell-based assay: α7βgal+/− myoblasts/myotubes, LacZ reporter, β-galactosidase cleavage of FDG
Set-up: species or system mouse
Description: An α7 integrin null mouse was produced in which exon 1 of the gene encoding the α7 integrin was replaced by the LacZ reporter. In these mice, all the transcriptional regulatory elements of the α7 integrin promoter were retained, allowing β-galactosidase to report expression of 7 integrin. A primary myoblast cell line (designated α7βgal^+/−) isolated from 10 day old α7^+/− pups were analyzed for the ability of β-galactosidase to report α7 integrin expression. α7βgal^+/− myoblasts were differentiated and subjected to X-gal staining and western analysis (FIGS. 1A and 1B).
The activity of the α7 integrin promoter was measured by β-galactosidase cleavage of the non-fluorescent compound fluorescein di-β-D-galactopyranoside (FDG) to fluorescein. This assay was used to screen compound libraries to identify molecules that up-regulate α7 integrin expression in muscle.
Also evaluated was the effect of various isoforms of laminin and the ligand for α7β1 integrin on integrin expression. Positive hits were subjected to dose-response analysis, western analysis and a myostatin counterscreen (a negative regulator of muscle growth).

[1] = Mus musculus; Table 12; log of AC50, given with negative sign; unit of AC50 not given; read-out: Fit Log AC50 (converted)
[2] = Mus musculus; read-out: Max Response [%]
[3] = Table 12; fitted activity at zero concentration
[4] = Table 12 Compound data; concentration-response curve fit

## Cc1ccc(C2Nc3cccc4cccc(c34)N2)s1 [Compound 24]
[1]
  AC50: 3.16 µM
[2]
  Emax: 81.3%
Table 12; curve fit
  Fit HillSlope: 2.1211
[3]
  Fit Zero Activity [%]: 5.7274%
Table 12; key not given
  Fit Curve Class: 1.1
[4]
  Score: 84

## COc1cc(=O)n(C)c2ccccc12 [Compound 25]
[1]
  AC50: 2.24 µM
[2]
  Emax: 63%
Table 12; curve fit
  Fit HillSlope: 1.6604
[3]
  Fit Zero Activity [%]: −18.7854%
Table 12; key not given
  Fit Curve Class: 1.1
[4]
  Score: 84

## CCOC(=O)c1sc(=N)n(-c2ccc(OC)cc2)c1C [Compound 26]
[1]
  AC50: 2 µM
[2]
  Emax: 56.1%
Table 12; curve fit
  Fit HillSlope: 1.1
[3]
  Fit Zero Activity [%]: −36.1807%
Table 12; key not given
  Fit Curve Class: 1.1
[4]
  Score: 84

## Cc1ccc(OCC(=O)N2CCN(S(=O)(=O)c3ccc4c(c3)OCCO4)CC2)c(C)c1 [Compound 27]
[1]
  AC50: 2 µM
[2]
  Emax: 53.8%
Table 12; curve fit
  Fit HillSlope: 2.2526
[3]
  Fit Zero Activity [%]: −26.8995%
Table 12; key not given
  Fit Curve Class: 1.1
[4]
  Score: 83

## CC(NC(=O)c1cn(C)c2ccc(S(=O)(=O)N3CCCC3)cc2c1=O)c1ccccc1 (stereo not shown) [Compound 28]
[1]
  AC50: 2.82 µM
[2]
  Emax: 54.7%
Table 12; curve fit
  Fit HillSlope: 2.5334
[3]
  Fit Zero Activity [%]: −36.6914%
Table 12; key not given
  Fit Curve Class: 1.1
[4]
  Score: 83

## Cc1cc(NC(=O)CCC(=O)N(Cc2cccnc2)C(C(=O)NC(C)(C)C)c2ccccc2Cl)no1 (stereo not shown) [Compound 29]
[1]
  AC50: 3.98 µM
[2]
  Emax: 54.9%
Table 12; curve fit
  Fit HillSlope: 1.7885
[3]
  Fit Zero Activity [%]: −25.4387%
Table 12; key not given
  Fit Curve Class: 1.1
[4]
  Score: 83

## COc1cc(/C=C2/C(=N)N3C(SC)=NSC3=NC2=O)ccc1OC(=O)c1ccco1 [Compound 30]
[1]
  AC50: 3.98 µM
[2]
  Emax: 73.4%
Table 12; curve fit
  Fit HillSlope: 2.1876
[3]
  Fit Zero Activity [%]: −19.157%
Table 12; key not given
  Fit Curve Class: 1.1
[4]
  Score: 83

## COc1ccccc1CNc1cc(C)ccn1 [Compound 31]
[1]
  AC50: 2.51 µM
[2]
  Emax: 62.3%
Table 12; curve fit
  Fit HillSlope: 1.9673
[3]
  Fit Zero Activity [%]: −24.2621%
Table 12; key not given
  Fit Curve Class: 1.1
[4]
  Score: 83

## Cc1nn(C(C)(C)C)c(C)c1/C=N/OC(=O)Nc1ccc(Cl)c(Cl)c1 [Compound 32]
  Curve Description: Complete
  Fit Curve Class: 1.1
  Fit HillSlope: 2.1211
  Fit Zero Activity [%]: −28.5623%
  Score: 83
Mus musculus, read-out: Fit Log AC50 (converted)
  AC50: 2.82 µM
Mus musculus, read-out: Max Response [%]
  Emax: 59.8%

## CCOC(=O)C1CCCN(C(=O)CNS(=O)(=O)c2ccc(Br)s2)C1 (stereo not shown) [Compound 33]
[1]
  AC50: 2 µM
[2]
  Emax: 31.1%
Table 12; curve fit
  Fit HillSlope: 1.1
[3]
  Fit Zero Activity [%]: −50.1655%
Table 12; key not given
  Fit Curve Class: 1.1
[4]
  Score: 82

## CCCCNC(=O)CSc1nnc(Cc2ccc(Cl)c(Cl)c2)c(O)n1 [Compound 34]
[1]
  AC50: 1.41 µM
[2]
  Emax: 75.4%
Table 12; curve fit
  Fit HillSlope: 1.8851
[3]
  Fit Zero Activity [%]: 5.9015%
Table 12; key not given
  Fit Curve Class: 1.2
[4]
  Score: 65

## O=Cc1ccc(C(=O)OCC(=O)N2CCCC2)cc1 [Compound 35]
0.307 μM
  Activity at 0.307 μM [%] **: 0%
[1]
  AC50: 2.51 µM
[2]
  Emax: 71.8%
Table 12; curve fit
  Fit HillSlope: 3.132
[3]
  Fit Zero Activity [%]: −0.1751%
Table 12; key not given
  Fit Curve Class: 1.2
[4]
  Score: 64

## CC(C)/N=C(\S)NN=C1CCCCCCCCCCC1 [Compound 36]
[1]
  AC50: 3.16 µM
[2]
  Emax: 78.6%
Table 12; curve fit
  Fit HillSlope: 1.4163
[3]
  Fit Zero Activity [%]: 5.5%
Table 12; key not given
  Fit Curve Class: 1.2
[4]
  Score: 64

## COc1ccc(S(=O)(=O)N(NC2=NS(=O)(=O)c3ccccc32)C(=O)C(C)C)cc1 [Compound 37]
[1]
  AC50: 2.51 µM
[2]
  Emax: 72.9%
Table 12; curve fit
  Fit HillSlope: 2.4064
[3]
  Fit Zero Activity [%]: −2.5935%
Table 12; key not given
  Fit Curve Class: 1.2
[4]
  Score: 64

## C/C(CC(=O)Nc1ccc(Cl)c(C(F)(F)F)c1)=N\NC(=O)c1cnccn1 [Compound 38]
[1]
  AC50: 4.47 µM
[2]
  Emax: 72.7%
Table 12; curve fit
  Fit HillSlope: 4.9549
[3]
  Fit Zero Activity [%]: −2.0156%
Table 12; key not given
  Fit Curve Class: 1.2
[4]
  Score: 63

## Cc1ccc(-c2onc3ccc(C(=O)/C=C/N(C)C)cc23)cc1 [Compound 39]
[1]
  AC50: 3.55 µM
[2]
  Emax: 69.1%
Table 12; curve fit
  Fit HillSlope: 1.7529
[3]
  Fit Zero Activity [%]: −9.0026%
Table 12; key not given
  Fit Curve Class: 1.2
[4]
  Score: 63

## Cc1cccn2c(=O)c3cc(C(=O)NC4CCCCC4)n(C)c3nc12 [Compound 40]
[1]
  AC50: 14.1 µM
[2]
  Emax: 427%
Table 12; curve fit
  Fit HillSlope: 4.5045
[3]
  Fit Zero Activity [%]: −3.212%
Table 12; key not given
  Fit Curve Class: 2.1
[4]
  Score: 48

## COc1ccc(Cl)cc1NC(=O)CC(=O)Nc1cc(Cl)ccc1OC [Compound 41]
[1]
  AC50: 14.1 µM
[2]
  Emax: 453%
Table 12; curve fit
  Fit HillSlope: 4.5045
[3]
  Fit Zero Activity [%]: 8.8874%
Table 12; key not given
  Fit Curve Class: 2.1
[4]
  Score: 48

## COc1cc(/C=C/CN2CCN(Cc3ccc(C)o3)C(CCO)C2)ccc1O (stereo not shown) [Compound 42]
1.530 μM
  Activity at 1.530 μM [%] **: 0%
[1]
  AC50: 14.1 µM
[2]
  Emax: 481%
Table 12; curve fit
  Fit HillSlope: 4.9549
[3]
  Fit Zero Activity [%]: 9.6207%
Table 12; key not given
  Fit Curve Class: 2.1
[4]
  Score: 48

## O=C(Cn1cccc1C(=O)c1ccccc1)NCCCc1ccccc1 [Compound 43]
[1]
  AC50: 3.98 µM
[2]
  Emax: 131%
Table 12; curve fit
  Fit HillSlope: 0.9
[3]
  Fit Zero Activity [%]: 0%
Table 12; key not given
  Fit Curve Class: 2.1
[4]
  Score: 47

## CC(=O)Nc1ccc(N(C(=O)c2cnccn2)C(C(=O)NC2CCCCC2)c2ccc(F)cc2)cc1 (stereo not shown) [Compound 44]
[1]
  AC50: 11.2 µM
[2]
  Emax: 308%
Table 12; curve fit
  Fit HillSlope: 4.095
[3]
  Fit Zero Activity [%]: −17.6073%
Table 12; key not given
  Fit Curve Class: 2.1
[4]
  Score: 47

## COc1ccc(N2CCCC2)c(NC(=O)c2ccc([N+](=O)[O-])o2)c1 [Compound 46]
[1]
  AC50: 7.94 µM
[2]
  Emax: 156%
Table 12; curve fit
  Fit HillSlope: 1.01
[3]
  Fit Zero Activity [%]: −35.6022%
Table 12; key not given
  Fit Curve Class: 2.1
[4]
  Score: 46

## CC(=O)Nc1ccc(NC(=O)[C@@H](NC(=O)c2cccc(C)c2)C(C)C)cc1 [Compound 47]
[1]
  AC50: 5.62 µM
[2]
  Emax: 142%
Table 12; curve fit
  Fit HillSlope: 1.331
[3]
  Fit Zero Activity [%]: 12.5272%
Table 12; key not given
  Fit Curve Class: 2.1
[4]
  Score: 46

## O=C(O)c1cc(/N=C/c2c(O)oc3ccccc3c2=O)ccc1O [Compound 48]
[1]
  AC50: 7.08 µM
[2]
  Emax: 165%
Table 12; curve fit
  Fit HillSlope: 1.7137
[3]
  Fit Zero Activity [%]: −35.4511%
Table 12; key not given
  Fit Curve Class: 2.1
[4]
  Score: 46

## O=[N+]([O-])c1ccc(N2CCN(c3ccccc3F)CC2)nc1 [Compound 49]
[1]
  AC50: 5.62 µM
[2]
  Emax: 151%
Table 12; curve fit
  Fit HillSlope: 1.9282
[3]
  Fit Zero Activity [%]: 2.973%
Table 12; key not given
  Fit Curve Class: 2.1
[4]
  Score: 46

## O=C1SC(Cc2ccccc2)C(=O)N1c1ccccc1 (stereo not shown) [Compound 50]
[1]
  AC50: 7.94 µM
[2]
  Emax: 176%
Table 12; curve fit
  Fit HillSlope: 1.8851
[3]
  Fit Zero Activity [%]: 5.0579%
Table 12; key not given
  Fit Curve Class: 2.1
[4]
  Score: 46

## Cc1ccc(NCc2nnc(SCC(=O)Nc3nnc(C)s3)n2C)cc1 [Compound 51]
[1]
  AC50: 10 µM
[2]
  Emax: 249%
Table 12; curve fit
  Fit HillSlope: 4.9549
[3]
  Fit Zero Activity [%]: −23.8252%
Table 12; key not given
  Fit Curve Class: 2.1
[4]
  Score: 46

## CC1CCCCN1c1ncnc(N)c1[N+](=O)[O-] (stereo not shown) [Compound 52]
[1]
  AC50: 4.47 µM
[2]
  Emax: 130%
Table 12; curve fit
  Fit HillSlope: 1.4781
[3]
  Fit Zero Activity [%]: −27.7073%
Table 12; key not given
  Fit Curve Class: 2.1
[4]
  Score: 46

## O=C(Nc1ccc(Cl)cc1N1CCOCC1)C1CCCCC1 [Compound 53]
0.307 μM
  Activity at 0.307 μM [%] **: 0%
[1]
  AC50: 7.08 µM
[2]
  Emax: 119%
Table 12; curve fit
  Fit HillSlope: 0.8
[3]
  Fit Zero Activity [%]: −11.267%
Table 12; key not given
  Fit Curve Class: 2.1
[4]
  Score: 45

## CCCn1c(-c2cc(OC)c(OC)c(OC)c2)nc2c1c(=O)[nH]c(=O)n2Cc1ccccc1 [Compound 54]
[1]
  AC50: 12.6 µM
Table 12; curve fit
  Fit HillSlope: 1.1341
[3]
  Fit Zero Activity [%]: 39.3368%
Table 12; key not given
  Fit Curve Class: 2.1
[4]
  Score: 45

## CS(=O)(=O)c1ccc(Cl)c(NC(=O)CSc2nncn2-c2ccccc2)c1 [Compound 55]
[1]
  AC50: 12.6 µM
Table 12; curve fit
  Fit HillSlope: 4.9549
[3]
  Fit Zero Activity [%]: −18.4203%
Table 12; key not given
  Fit Curve Class: 2.1
[4]
  Score: 45

## CC(C)(CC(=O)O)CC(=O)N1CCCN(c2nccc(C(F)(F)F)n2)CC1 [Compound 56]
[1]
  AC50: 3.98 µM
Table 12; curve fit
  Fit HillSlope: 1.5095
[3]
  Fit Zero Activity [%]: 21.8862%
Table 12; key not given
  Fit Curve Class: 2.1
[4]
  Score: 45

## COc1cc(CNCc2ccc(C(=O)O)cc2)ccc1OCc1ccc(F)cc1.Cl [Compound 57]
[1]
  AC50: 4.47 µM
Table 12; curve fit
  Fit HillSlope: 1.7529
[3]
  Fit Zero Activity [%]: −0.5596%
Table 12; key not given
  Fit Curve Class: 2.1
[4]
  Score: 45

## COc1ccc(Nc2ncnc3ccc(C)cc23)cc1 [Compound 58]
[1]
  AC50: 3.55 µM
Table 12; curve fit
  Fit HillSlope: 0.9
[3]
  Fit Zero Activity [%]: −42.3624%
Table 12; key not given
  Fit Curve Class: 2.1
[4]
  Score: 45

## COc1ccc(-n2c(C)c(C(C)=O)c3cc(OC(C)=O)ccc32)cc1 [Compound 59]
[1]
  AC50: 10 µM
Table 12; curve fit
  Fit HillSlope: 3.5722
[3]
  Fit Zero Activity [%]: −3.6299%
Table 12; key not given
  Fit Curve Class: 2.1
[4]
  Score: 45
